In PMC3344845, “Structure of Bradavidin – C-Terminal Residues Act as Intrinsic Ligands” (PLoS ONE, 2012) one finds Kd and Tm with biotin data, which are given here for 1 compound.

Each structure is given as a SMILES string.

Type in all cases: binding
The target in test [1] is T1, core-bradavidin (Bradyrhizobium diazoefficiens, UniProt Q89IH6).
T1 construct: gene blr5658; C-terminally truncated core form, 118 residues (truncation between Leu118 and Leu119), lacks Brad-tag; E. coli BL21-AI periplasm; homotetramer
As to the kind of experiment: isothermal titration calorimetry. The source says:
isothermal titration calorimetry on core-bradavidin
In general terms: ITC needs no label: the signal is the heat of the interaction.

The target of test [2] is T2, wt bradavidin (Bradyrhizobium diazoefficiens, UniProt Q89IH6).
T2 construct: gene blr5658; E. coli BL21-AI periplasm; homotetramer
T2 sequence (Q89IH6 26-163): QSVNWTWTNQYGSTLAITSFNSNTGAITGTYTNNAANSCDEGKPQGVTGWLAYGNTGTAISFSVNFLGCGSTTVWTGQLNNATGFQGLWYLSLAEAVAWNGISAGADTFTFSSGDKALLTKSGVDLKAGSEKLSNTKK
The test is described as follows: differential scanning calorimetry. Particulars: 50 mM sodium phosphate pH 7.0, 100 mM NaCl; 15 µM protein, ~3:1 biotin:subunit; 120 °C/hour. (In general: In DSC, transitions show as peaks or steps in heat flow.)

In test [3] the target is T2, wt bradavidin. As to the kind of experiment: isothermal titration calorimetry. The source says:
isothermal titration calorimetry on wt bradavidin

The target of test [4] is T1, core-bradavidin. The test is described as follows: differential scanning calorimetry. Particulars: 50 mM sodium phosphate pH 7.0, 100 mM NaCl; 15 µM protein, ~3:1 biotin:subunit; 120 °C/hour.

As for `O=C(O)CCCC[C@@H]1SC[C@@H]2NC(=O)N[C@@H]21` [D-biotin], the results for the Kd in test [1] and in test [3] were below 1 nM and 300 nM, respectively. Also, the Tm with biotin in test [2] worked out at 101.7±0.1 °C; in test [4] it was 97.9±0.2 °C.

A word on the Kd: it is the free concentration of one partner at which half of the binding sites on the other are occupied at equilibrium, for simple one-to-one binding. A low value points to higher affinity.
